Reference: publication PMC3521869 (Journal of medicinal chemistry, 2012)
Bridge positions count the residues as written; N and C are the ends. Square brackets hold non-standard residues; d marks the D form. 2Nal = N[C@@H](Cc1ccc2ccccc2c1)C(=O)O; Cit = NC(=O)NCCC[C@H](N)C(=O)O

Assay: Fraction bound to serum proteins
Format: in vitro ADME
Conditions: human

In the case of “cyclo([2Nal]CY[Cit]KVCPKILQRCRRDSDCPGACICRGNGYCGSYR[Cit]CRG[dP]RR) (disulfide 2-38, 7-24, 14-26, 20-32) [MCo-CVX-5c]”, the fraction unbound is reported as under 0.01.
